From ChEMBL document CHEMBL1201862, “PubChem BioAssay data set” (2004)
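A five-concentration, 48-hour dose response in 96-well plates underlies each endpoint, interpolated linearly between surrounding concentrations. Abbreviation: GI50, concentration required for 50% inhibition of growth.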 Activity calls are given as the source filed them. Rule as the data show it: active = GI50 up to about 1.1 µM and inactive = higher.

Key:
Experiment in all cases: inhibition of tumour cell growth, NCI panel, 48 h
786-0 = system: 786-0
A498 = system: A498
A549 = system: A549
ACHN = system: ACHN
BT-549 = system: BT-549
CAKI-1 = system: CAKI-1
CCRF-CEM = system: CCRF-CEM
COLO 205 = system: COLO 205
EKVX = system: EKVX
HCC 2998 = system: HCC 2998
HCT-116 = system: HCT-116
HCT-15 = system: HCT-15
HOP-62 = system: HOP-62
HOP-92 = system: HOP-92
HT-29 = system: HT-29
Hs-578T = system: Hs-578T
IGROV-1 = system: IGROV-1
K562 = system: K562
KM12 = system: KM12
LOX IMVI = system: LOX IMVI
M14 = system: M14
MCF7 = system: MCF7
MDA-MB-231 = system: MDA-MB-231
MDA-MB-435 = system: MDA-MB-435
MDA-N = system: MDA-N
MOLT-4 = system: MOLT-4
Malme-3M = system: Malme-3M
NCI-H226 = system: NCI-H226
NCI-H23 = system: NCI-H23
NCI-H460 = system: NCI-H460
NCI-H522 = system: NCI-H522
NCI/ADR-RES = system: NCI/ADR-RES
OVCAR-3 = system: OVCAR-3
OVCAR-4 = system: OVCAR-4
OVCAR-5 = system: OVCAR-5
OVCAR-8 = system: OVCAR-8
PC-3 = system: PC-3
RPMI-8226 = system: RPMI-8226
RXF 393 = system: RXF 393
SF-268 = system: SF-268
SF-295 = system: SF-295
SF-539 = system: SF-539
SK-MEL-2 = system: SK-MEL-2
SK-MEL-5 = system: SK-MEL-5
SK-OV-3 = system: SK-OV-3
SN12C = system: SN12C
SNB-19 = system: SNB-19
SNB-75 = system: SNB-75
SR = system: SR
SW-620 = system: SW-620
T47D = system: T47D
TK-10 = system: TK-10
U-251 = system: U-251
UACC-257 = system: UACC-257
UACC-62 = system: UACC-62
UO-31 = system: UO-31
DU-145 = system: DU-145
SK-MEL-28 = system: SK-MEL-28

SMILES: Cn1c(=O)c2c(-c3ccccc3)onc2n(C)c1=O
- GI50 (786-0): 29 µM (inactive)
- GI50 (A498): 64.1 µM (inactive)
- GI50 (A549): 21.3 µM (inactive)
- GI50 (ACHN): 31.9 µM (inactive)
- GI50 (BT-549): 17.2 µM (inactive)
- GI50 (CAKI-1): 42.1 µM (inactive)
- GI50 (CCRF-CEM): 22.4 µM (inactive)
- GI50 (COLO 205): 43.2 µM (inactive)
- GI50 (EKVX): 38.4 µM (inactive)
- GI50 (HCC 2998): 32.7 µM (inactive)
- GI50 (HCT-116): 27.4 µM (inactive)
- GI50 (HCT-15): 21.1 µM
- GI50 (HOP-62): 17.1 µM (inactive)
- GI50 (HOP-92): 42 µM (inactive)
- GI50 (HT-29): 25.2 µM (inactive)
- GI50 (Hs-578T): 24.5 µM (inactive)
- GI50 (IGROV-1): 20.3 µM (inactive)
- GI50 (K562): 30.3 µM (inactive)
- GI50 (KM12): 34 µM (inactive)
- GI50 (LOX IMVI): 21.2 µM (inactive)
- GI50 (M14): 16.9 µM (inactive)
- GI50 (MCF7): 12.9 µM (inactive)
- GI50 (MDA-MB-231): 49.9 µM (inactive)
- GI50 (MDA-MB-435): 44.5 µM (inactive)
- GI50 (MDA-N): 50.2 µM (inactive)
- GI50 (MOLT-4): 26.8 µM (inactive)
- GI50 (Malme-3M): 46.8 µM (inactive)
- GI50 (NCI-H226): > 100 µM (inactive)
- GI50 (NCI-H23): 14 µM (inactive)
- GI50 (NCI-H460): 35.9 µM (inactive)
- GI50 (NCI-H522): 27.9 µM (inactive)
- GI50 (NCI/ADR-RES): 27.5 µM (inactive)
- GI50 (OVCAR-3): 12.1 µM (inactive)
- GI50 (OVCAR-4): 43.2 µM (inactive)
- GI50 (OVCAR-5): 31 µM (inactive)
- GI50 (OVCAR-8): 24 µM (inactive)
- GI50 (PC-3): 15 µM (inactive)
- GI50 (RPMI-8226): 15 µM (inactive)
- GI50 (RXF 393): 21.3 µM (inactive)
- GI50 (SF-268): 35.2 µM (inactive)
- GI50 (SF-295): 40.7 µM (inactive)
- GI50 (SF-539): 37.9 µM (inactive)
- GI50 (SK-MEL-2): 15.8 µM (inactive)
- GI50 (SK-MEL-5): 30.7 µM (inactive)
- GI50 (SK-OV-3): > 100 µM (inactive)
- GI50 (SN12C): 30.4 µM (inactive)
- GI50 (SNB-19): 40.7 µM (inactive)
- GI50 (SNB-75): 24.6 µM (inactive)
- GI50 (SR): 36.6 µM (inactive)
- GI50 (SW-620): 26.6 µM (inactive)
- GI50 (T47D): 23.8 µM (inactive)
- GI50 (TK-10): 14.4 µM (inactive)
- GI50 (U-251): 28.1 µM (inactive)
- GI50 (UACC-257): 31.3 µM (inactive)
- GI50 (UACC-62): 21.7 µM (inactive)
- GI50 (UO-31): 19.5 µM (inactive)

SMILES: C/C(=N\NC1=NCCN1)c1cn(C2=NCCN2)nc1C
- GI50 (786-0): > 100 µM (inactive)
- GI50 (A498): > 100 µM (inactive)
- GI50 (A549): > 100 µM (inactive)
- GI50 (ACHN): > 100 µM (inactive)
- GI50 (BT-549): > 100 µM (inactive)
- GI50 (CAKI-1): > 100 µM (inactive)
- GI50 (COLO 205): > 100 µM (inactive)
- GI50 (DU-145): > 100 µM (inactive)
- GI50 (EKVX): > 100 µM (inactive)
- GI50 (HCC 2998): > 100 µM (inactive)
- GI50 (HCT-116): > 100 µM (inactive)
- GI50 (HCT-15): > 100 µM
- GI50 (HOP-62): > 100 µM (inactive)
- GI50 (HOP-92): 97.1 µM (inactive)
- GI50 (HT-29): > 100 µM (inactive)
- GI50 (Hs-578T): > 100 µM (inactive)
- GI50 (IGROV-1): > 100 µM (inactive)
- GI50 (K562): 59.6 µM (inactive)
- GI50 (KM12): > 100 µM (inactive)
- GI50 (M14): > 100 µM (inactive)
- GI50 (MCF7): > 100 µM (inactive)
- GI50 (MDA-MB-231): > 100 µM (inactive)
- GI50 (MDA-MB-435): > 100 µM (inactive)
- GI50 (MDA-N): > 100 µM (inactive)
- GI50 (Malme-3M): > 100 µM (inactive)
- GI50 (NCI-H226): > 100 µM (inactive)
- GI50 (NCI-H23): > 100 µM (inactive)
- GI50 (NCI-H460): > 100 µM (inactive)
- GI50 (NCI-H522): > 100 µM (inactive)
- GI50 (NCI/ADR-RES): > 100 µM (inactive)
- GI50 (OVCAR-3): > 100 µM (inactive)
- GI50 (OVCAR-4): > 100 µM (inactive)
- GI50 (OVCAR-5): > 100 µM (inactive)
- GI50 (OVCAR-8): > 100 µM (inactive)
- GI50 (PC-3): > 100 µM (inactive)
- GI50 (RPMI-8226): > 100 µM (inactive)
- GI50 (RXF 393): 72.1 µM (inactive)
- GI50 (SF-268): > 100 µM (inactive)
- GI50 (SF-295): > 100 µM (inactive)
- GI50 (SF-539): > 100 µM (inactive)
- GI50 (SK-MEL-28): > 100 µM (inactive)
- GI50 (SK-MEL-2): > 100 µM (inactive)
- GI50 (SK-MEL-5): > 100 µM (inactive)
- GI50 (SK-OV-3): > 100 µM (inactive)
- GI50 (SN12C): > 100 µM (inactive)
- GI50 (SNB-19): > 100 µM (inactive)
- GI50 (SNB-75): 77.6 µM (inactive)
- GI50 (SW-620): > 100 µM (inactive)
- GI50 (T47D): > 100 µM (inactive)
- GI50 (TK-10): > 100 µM (inactive)
- GI50 (U-251): > 100 µM (inactive)
- GI50 (UACC-257): > 100 µM (inactive)
- GI50 (UACC-62): > 100 µM (inactive)
- GI50 (UO-31): > 100 µM (inactive)

SMILES: Cc1c(Cl)c(S(N)(=O)=O)cc2c1N=CNS2(=O)=O
- GI50 (786-0): > 100 µM (inactive)
- GI50 (A498): > 100 µM (inactive)
- GI50 (A549): > 100 µM (inactive)
- GI50 (ACHN): > 100 µM (inactive)
- GI50 (BT-549): > 100 µM (inactive)
- GI50 (CAKI-1): > 100 µM (inactive)
- GI50 (CCRF-CEM): > 100 µM (inactive)
- GI50 (COLO 205): > 100 µM (inactive)
- GI50 (DU-145): > 100 µM (inactive)
- GI50 (EKVX): 0.507 µM (active)
- GI50 (HCC 2998): > 100 µM (inactive)
- GI50 (HCT-116): > 100 µM (inactive)
- GI50 (HCT-15): > 100 µM
- GI50 (HOP-62): > 100 µM (inactive)
- GI50 (HOP-92): > 100 µM (inactive)
- GI50 (HT-29): > 100 µM (inactive)
- GI50 (Hs-578T): > 100 µM (inactive)
- GI50 (IGROV-1): > 100 µM (inactive)
- GI50 (K562): > 100 µM (inactive)
- GI50 (KM12): > 100 µM (inactive)
- GI50 (LOX IMVI): > 100 µM (inactive)
- GI50 (M14): > 100 µM (inactive)
- GI50 (MCF7): > 100 µM (inactive)
- GI50 (MDA-MB-231): > 100 µM (inactive)
- GI50 (MDA-MB-435): > 100 µM (inactive)
- GI50 (MDA-N): > 100 µM (inactive)
- GI50 (MOLT-4): > 100 µM (inactive)
- GI50 (Malme-3M): > 100 µM (inactive)
- GI50 (NCI-H226): > 100 µM (inactive)
- GI50 (NCI-H23): > 100 µM (inactive)
- GI50 (NCI-H460): > 100 µM (inactive)
- GI50 (NCI-H522): > 100 µM (inactive)
- GI50 (NCI/ADR-RES): > 100 µM (inactive)
- GI50 (OVCAR-3): > 100 µM (inactive)
- GI50 (OVCAR-4): > 100 µM (inactive)
- GI50 (OVCAR-5): > 100 µM (inactive)
- GI50 (OVCAR-8): > 100 µM (inactive)
- GI50 (PC-3): > 100 µM (inactive)
- GI50 (RPMI-8226): > 100 µM (inactive)
- GI50 (RXF 393): > 100 µM (inactive)
- GI50 (SF-268): > 100 µM (inactive)
- GI50 (SF-295): > 100 µM (inactive)
- GI50 (SK-MEL-28): > 100 µM (inactive)
- GI50 (SK-MEL-5): > 100 µM (inactive)
- GI50 (SK-OV-3): > 100 µM (inactive)
- GI50 (SN12C): > 100 µM (inactive)
- GI50 (SNB-19): > 100 µM (inactive)
- GI50 (SNB-75): > 100 µM (inactive)
- GI50 (SW-620): > 100 µM (inactive)
- GI50 (T47D): > 100 µM (inactive)
- GI50 (TK-10): > 100 µM (inactive)
- GI50 (U-251): > 100 µM (inactive)
- GI50 (UACC-257): > 100 µM (inactive)
- GI50 (UACC-62): > 100 µM (inactive)
- GI50 (UO-31): > 100 µM (inactive)
